The values that follow come from ChEMBL document CHEMBL1155654, “Acylated flavonol glycosides from the flower of Inula britannica” (J Nat Prod, 2000).

≈ marks a conversion by molar mass, not a printed value. Calls of active or inactive are those of the source. No cut-off for these calls is given here.

Experiment [1] deals with Radical scavenging activity. Briefly: Antioxidant activity assessed as DPPH free radical scavenging activity. Type of experiment: functional. For orientation: DPPH is a stable violet radical that fades when it is reduced.
Experiment [2] deals with HL-60. Briefly: Antioxidant activity in human HL60 cells assessed as reduction of cytochrome-c […]. Type of experiment: functional, cell-based.
Experiment [3] deals with HL-60. Briefly: Antioxidant activity in human HL60 cells assessed as inhibition of TPA-induced free radical formation. Type of experiment: functional, cell-based.

As usually defined, the IC50 is the concentration that inhibits the measured activity by half. For the compound `COc1c(O)cc2oc(-c3ccc(O)c(O)c3)c(O)c(=O)c2c1O` [PATULETIN], the results for the IC50 (in experiment [1]; in the experiment with HL-60 [2]) were 9 µg/mL (≈ 27.1 µM) and 10.1 µg/mL (≈ 30.4 µM), respectively. Moreover, the outcome in the experiment on HL-60 [3] was Active.
Consider `O=c1c(O[C@@H]2O[C@H](CO)[C@@H](O)[C@H](O)[C@H]2O)c(-c2ccc(O)cc2)oc2cc(O)cc(O)c12` [ASTRAGALIN], for which the half-inhibitory concentration (IC50) in experiment [1] is greater than 100 µg/mL; in the experiment with HL-60 [2] it was greater than 50 µg/mL.
Consider `COc1c(O[C@@H]2O[C@H](CO)[C@@H](O)[C@H](O)[C@H]2O)cc2oc(-c3ccc(O)cc3)cc(=O)c2c1O` [HISPIDULOSIDE], for which the IC50 in experiment [1] is greater than 100 µg/mL; with HL-60 [2] it was greater than 50 µg/mL.
As to `COc1c(O[C@@H]2O[C@H](COC(=O)CC(C)C)[C@@H](O)[C@H](O)[C@H]2O)cc2oc(-c3ccc(O)c(O)c3)c(O)c(=O)c2c1O`, the IC50 in experiment [1] worked out at 14.3 µg/mL (≈ 24.7 µM); in the experiment on HL-60 [2], 11.7 µg/mL (≈ 20.2 µM). Further, the result with HL-60 [3] was Active.
With `O=C(O)c1cc(O)c(O)c(O)c1` [GALLIC ACID], the 50% inhibitory concentration (IC50) in experiment [1] is 3.7 µg/mL (≈ 21.7 µM); with HL-60 [2], 3.2 µg/mL (≈ 18.8 µM).
On to `COc1c(O[C@@H]2O[C@H](COC(=O)C(C)C)[C@@H](O)[C@H](O)[C@H]2O)cc2oc(-c3ccc(O)c(O)c3)c(O)c(=O)c2c1O`, for which the results for the IC50 (in experiment [1]; with HL-60 [2]) were 14.3 µg/mL (≈ 25.3 µM) and 10.6 µg/mL (≈ 18.8 µM), respectively. For the same compound, the result in the experiment on HL-60 [3] was Active.
As to `COc1c(O[C@@H]2O[C@H](CO)[C@@H](O)[C@H](O)[C@H]2O)cc2oc(-c3ccc(O)c(O)c3)c(O)c(=O)c2c1O` [PATULITRIN], the IC50 in experiment [1] was 10.3 µg/mL (≈ 20.8 µM); in the experiment on HL-60 [2], 8.1 µg/mL (≈ 16.4 µM). Also, in the experiment on HL-60 [3], the outcome was Active.
On to `O=c1cc(-c2ccc(O)c(O)c2)oc2cc(O)cc(O)c12` [LUTEOLIN], for which the 50% inhibitory concentration (IC50) in experiment [1] was found to be 7.2 µg/mL (≈ 25.2 µM); with HL-60 [2], 12.1 µg/mL (≈ 42.3 µM). For the same compound, the result in the experiment with HL-60 [3] was Active.
For `CCC(C)C(=O)OC[C@H]1O[C@@H](Oc2cc3oc(-c4ccc(O)c(O)c4)c(O)c(=O)c3c(O)c2OC)[C@H](O)[C@@H](O)[C@@H]1O` (some centres undefined), in that order: 23.5 µg/mL (≈ 40.6 µM), 11.2 µg/mL (≈ 19.4 µM) and “Active”.
For `COc1c(O)cc2oc(-c3ccc(O)c(O)c3)c(OC)c(=O)c2c1O` [AXILLARIN], in that order: 12.4 µg/mL (≈ 35.8 µM), 2.9 µg/mL (≈ 8.37 µM) and “Active”.
With `O=c1c(O)c(-c2ccc(O)cc2)oc2cc(O)cc(O)c12` [KAEMPFEROL], the concentration for half-maximal inhibition (IC50) worked out at 74.4 µg/mL (≈ 260 µM) in experiment [1] and 10 µg/mL (≈ 34.9 µM) in the experiment on HL-60 [2].
